This note sets out measurements from PubChem BioAssay (NCI).

Several values for one entry are separate records, joined by “and”; a condition that tells them apart may be missing. Identical values can stand only once.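 Each compound was tested at five concentrations against cells in 96-well plates for 48 hours. At the GI50, growth is halved. At the TGI there is no net growth.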

Experiment in all cases: DTP human tumour cell line panel, 48 h
Experiment [1] deals with HCC-2998 colon.
Experiment [2] concerns OVCAR-5 ovarian.
In experiment [3] the test system is NCI-H23 lung.
Experiment [4] concerns HCT-116 colon.
The test system of experiment [5] is OVCAR-4 ovarian.
For experiment [6], the system named is COLO 205 colon.
The test system of experiment [7] is LOX IMVI melanoma.
The subject of experiment [8] is MDA-MB-231 breast.
Experiment [9] has as its system MALME-3M melanoma.
In experiment [10] the test system is PC-3 prostate.

What is called GI50 is the concentration at which growth is held to half of that of the control. In general, TGI refers to the concentration giving total growth inhibition. In the case of `C=C(CN1CCN(c2cccc(C(F)(F)F)n2)CC1)c1ccc(C(=S)Nc2ccccc2N)cc1`, the GI50 in experiment [1] is 5.74 µM; in experiment [2], 3.67 µM; in experiment [3], 2.81 µM; in experiment [4] it was 2.76 µM; in experiment [5], 3.01 µM; in experiment [6], 3.19 µM. Also, the GI50 was 3.72 µM in experiment [7] and 2.52 µM in experiment [8]. The total growth inhibition concentration (TGI) was above 100 µM in experiment [1]; above 100 µM in experiment [2]; 8.85 µM in experiment [3]; 19.8 µM in [4]; above 100 µM in [5]; 11.8 µM in experiment [6]. Moreover, the concentration for total growth inhibition (TGI) in [7] amounted to 17.6 µM; in [8] it was 8.9 µM.
Consider `CC[C@@H]1C[C@H]2CC3c4[nH]c5ccc(O)cc5c4CCN(C2)C31`, for which the TGI in [1], in experiment [2], in experiment [3], in [9], in experiment [4] and in experiment [6] was above 100 µM each time. Also, in experiment [7], the total growth inhibition concentration (TGI) was above 100 µM.
With `Cc1nn(-c2nc3ccccc3s2)c2c1C(=O)c1ccccc1-2`, the TGI in experiment [1] was above 100 µM; in experiment [2] it was above 100 µM; in experiment [3] it was above 100 µM; in experiment [9] it was above 100 µM; in experiment [4] it was above 100 µM; in experiment [5], 64.1 µM. The total growth inhibition concentration (TGI) in experiment [6] and in [7] was above 100 µM throughout.
Regarding `COc1ccc(OC)c(-c2cc(=O)c3c(OC)c(OC)c(OC)c(OC)c3o2)c1`, the TGI was 92.1 µM in [1]; above 100 µM in experiment [2]; above 100 µM in [3]; above 100 µM in experiment [9]; above 100 µM in experiment [4]; 88.7 µM in experiment [5]. The TGI in experiment [6] was 31.6 µM; in [7], 76.1 µM; in experiment [8], above 100 µM.
Take `O=C(NC1C2CC3CC(C2)CC1C3)c1cc(/C=C/c2ccccc2)[nH]c(=S)n1` (stereo not drawn): the TGI in experiment [1], in [2], in [3], in [9], in [4] and in experiment [5] was above 100 µM throughout. Besides, the concentration for total growth inhibition (TGI) in experiment [6] and in [7] was above 100 µM in each case.
With `O=C(COC(=O)c1cccc2c(=O)c3ccccc3[nH]c12)Nc1ccccc1`, the TGI in [1] is above 100 µM; in experiment [3] it was 58.9 µM; in experiment [9], above 100 µM; in [4] it was 88.7 µM; in [5], above 100 µM; in [6], 51.6 µM. The same compound gave a TGI in experiment [7] of 73.2 µM.
For `Cc1cn2c(/C=N/N=C(N)N)c(-c3cccnc3)nc2s1`, the GI50 in experiment [10] was 6.95 µM; in experiment [2] it was 15.2 µM; in experiment [3] it was 11.9 µM; in [9], 8.14 µM; in experiment [4], 8.62 µM; in [5], 15.7 µM. In addition, the GI50 in experiment [6] was 11.6 µM; in experiment [7], 12.9 µM; in experiment [8] it was 10.1 µM. Besides, the TGI was found to be 24.7 µM in experiment [10]; 28.5 µM in experiment [2]; 25.2 µM in [3]; 21.4 µM in experiment [9]; 37.8 µM in [4]; 29.6 µM in [5]. The TGI in experiment [6] was found to be 27.5 µM; in experiment [7], 28.7 µM; in [8], 24.2 µM.
`C/C(=C(\c1ccc(OCCN2CCCCCC2)cc1)c1ccc(OC(=O)Cc2ccccc2)cc1)c1ccc(Cl)cc1`: the GI50 in experiment [1] is 2.72 µM; in [2], 2.77 µM; in [3] it was 2.81 µM; in experiment [9] it was 2.86 µM; in experiment [4], 1.32 µM; in experiment [5], 2.82 µM. Also, the values for the GI50 in experiment [6], in experiment [7] and in [8] were 2.8 µM, 2.51 µM and 3.04 µM, respectively. In addition, the concentration for total growth inhibition (TGI) in experiment [1] amounted to 5.57 µM; in experiment [2], 6.45 µM; in [3], 7.13 µM; in experiment [9], 5.71 µM; in experiment [4], 3.47 µM; in experiment [5], 7.05 µM. For the same compound, the TGI in experiment [6] is 5.56 µM; in experiment [7], 4.77 µM; in experiment [8], 5.69 µM.
Turning to `COc1ccc(OC(C(=O)O)c2ccccc2)c2c1CCCC2=O` (stereo not drawn), the TGI in experiment [1], in experiment [2], in experiment [3], in experiment [9], in [4] and in [5] was above 100 µM throughout. Further, the TGI in experiment [6] and in [7] was above 100 µM each time.
`NCCN1C(=O)C2C3c4ccccc4C(c4ccccc43)C2C1=O` (stereo not drawn): the TGI in experiment [1], in experiment [2], in experiment [3], in experiment [9], in [4] and in experiment [5] was above 100 µM each time. In addition, the TGI in [6] was above 100 µM.
`Cc1nn(C)cc1P(=S)(c1ccccc1)c1ccccc1`: the TGI in [1], in experiment [2], in [3], in experiment [9], in experiment [4] and in [5] was above 100 µM throughout. Further, the TGI in experiment [6] and in experiment [7] was above 100 µM throughout.
With `CC(C)(C)OC(=O)NC(CO)c1cccc(OCc2ccccc2)c1` (stereo not drawn), the TGI in experiment [1], in [2], in experiment [3], in experiment [9], in experiment [4] and in experiment [5] was above 100 µM in each case. In addition, the TGI in experiment [6] and in [7] was above 100 µM throughout.
On to `O=C(NCC(O)CNC(=O)C(F)(F)F)C(F)(F)F`, for which the TGI in experiment [1], in experiment [2], in experiment [3], in experiment [9], in experiment [4] and in experiment [5] was above 100 µM throughout. The total growth inhibition concentration (TGI) in [6] and in experiment [7] was above 100 µM each time.
As for `NC(N)=NS(=O)(=O)c1ccc(Nc2c3ccccc3nc3c(C(=O)Nc4ccc(S(N)(=O)=O)cc4)ccc(Cl)c23)cc1`, the total growth inhibition concentration (TGI) in [1], in experiment [2], in experiment [3], in experiment [9], in [4] and in [5] was above 100 µM each time. Besides, the TGI in experiment [6] and in experiment [7] was above 100 µM throughout.
In the case of `N#C/C(=C/Sc1ccccc1)C(=O)O`, the TGI in experiment [2] was 74.6 µM; in [3] it was above 100 µM; in experiment [4], 55.8 µM; in experiment [5], above 100 µM; in experiment [6], 47.5 µM; in experiment [7], 24.5 µM.
For `N#CCC(=O)N/N=C(\C(=O)Nc1ccc(Cl)c(Cl)c1)C1CN(c2ccccc2)N=C1N` (stereo not drawn), the total growth inhibition concentration (TGI) in experiment [1], in experiment [2], in [3], in experiment [9], in experiment [4] and in experiment [5] was above 100 µM each time. The TGI in [6] and in experiment [7] was above 100 µM in each case.
For the compound `O=c1oc(=O)c2oc3ccccc3oc1=2`, the TGI in [1], in experiment [2], in [3], in experiment [9], in [4] and in experiment [5] was above 100 µM throughout. In addition, the TGI in [6] and in experiment [7] was above 100 µM in each case.
For the compound `Clc1cc2n[se]nc2cc1Cl`, the total growth inhibition concentration (TGI) in [1], in [2], in experiment [3], in experiment [9], in experiment [4] and in experiment [5] was above 100 µM throughout. The compound further had a TGI in experiment [7] above 100 µM.
With `CC1OC(OC2C(CO)OC(O[C@H]3CC[C@@]4(C)C(=CC[C@H]5[C@@H]6C[C@@H]7O[C@]8(CC[C@@H](C)CN8)[C@@H](C)[C@@H]7[C@@]6(C)CC[C@@H]54)C3)C(O)C2O)C(O)C(O)C1O` (stereo partly drawn), the TGI in experiment [2], in [3], in [9], in [4], in experiment [5] and in experiment [6] was above 100 µM each time. Also, the TGI in experiment [7] is above 100 µM.
`CCOC(=O)/C(C#N)=C1/C(O)=C(C(=O)OC)C(C(=O)OC)=C1C(=O)OC`: the TGI in experiment [1], in [2], in experiment [3], in [9], in [5] and in experiment [6] was above 100 µM in each case. The concentration for total growth inhibition (TGI) in experiment [7] is above 100 µM.
As to `Cc1cc2c(c3oc(C4(C)OC4C4OC4C)cc(=O)c13)C(=O)c1c(O)c(C3CC(C)(N(C)C)C(O)C(C)O3)cc(C3CC(N(C)C)C(O)C(C)O3)c1C2=O` (stereo not drawn), the TGI in experiment [1] is 0.000891 µM; in experiment [2], 0.000244 µM and 0.00111 µM; in [7], 0.00189 µM and 0.000224 µM; in experiment [8] it was 0.000547 µM and 0.00161 µM. The GI50 in experiment [7] was 0.000175 µM.
As for `O=S(O)CCCSSc1ccccc1`, the TGI in [1], in experiment [2], in [3], in experiment [9], in experiment [4] and in experiment [5] was above 100 µM each time. Also, the TGI in [6] and in experiment [7] was above 100 µM each time.
On to `CNC(=O)c1cccc2c(Nc3ccc(NS(C)(=O)=O)cc3OC)c3cccc(C)c3nc12`, for which the TGI in experiment [1] was 2.34 µM; in experiment [2], 3.54 µM; in experiment [3] it was 0.58 µM; in [9], 4.55 µM; in experiment [4] it was 2.86 µM; in experiment [5], 4.35 µM. For the same compound, the TGI stood at 5.24 µM in experiment [6] and 3.17 µM in experiment [7].
Turning to `CCOc1ccccc1NC(=O)CCc1n[nH]c(=S)o1`, the TGI in experiment [3], in experiment [9], in experiment [4] and in experiment [7] was above 100 µM throughout.
With `O=C1CC(O)(c2ccccc2)C(c2ccccc2)=C1c1ccccc1` (stereo not drawn), the TGI in [1] was above 100 µM; in experiment [2] it was above 100 µM; in [3], above 100 µM; in experiment [9], above 100 µM; in [5], above 100 µM; in experiment [6] it was 35.7 µM. In [7], this compound returned a TGI above 100 µM.
`CCOC(=O)c1ccc(NC(=O)SCCC(=O)O)cc1`: the TGI in experiment [1], in experiment [2], in [3], in experiment [4], in [6] and in experiment [7] was above 100 µM in each case.
For the compound `COC(=O)c1ccc(Cl)cc1NC(=O)C1CCCCC1`, the TGI in experiment [1], in experiment [2], in [3], in experiment [9], in [4] and in experiment [5] was above 100 µM each time. Besides, the TGI in [6] is above 100 µM.
For the compound `CCC[CH2][Sn]1([CH2]CCC)[O]C(=O)c2ccc(C)cc2[O]1`, the GI50 in [1] is 1.14 µM; in [2], 1.67 µM; in experiment [3] it was 0.472 µM; in [9], 0.327 µM; in experiment [4], 0.985 µM; in experiment [5] it was 1.11 µM. Moreover, the GI50 in experiment [6] is 0.465 µM; in [7], 0.184 µM. Also, the total growth inhibition concentration (TGI) in experiment [1] stood at 2.38 µM; in [2], 3.05 µM; in experiment [3], 1.76 µM; in experiment [9] it was 1.44 µM; in experiment [4], 2.18 µM; in [5], 2.43 µM. Besides, the results for the TGI in experiment [6] and in [7] were 1.61 µM and 0.357 µM, respectively.
With `OCC1OC(n2cnc3c(Cl)nc(Cl)cc32)C(O)C1O` (stereo not drawn), the GI50 in [1], in [10], in experiment [2], in experiment [3], in experiment [9] and in experiment [4] was above 100 µM throughout. Also, the GI50 in [6] was above 100 µM. In addition, the total growth inhibition concentration (TGI) in experiment [1], in [10], in experiment [2], in experiment [3], in experiment [9] and in experiment [4] was above 100 µM in each case. This compound also had a TGI in [6] above 100 µM.
`OC1C2CCC1C1C3C=CC(C3)C21` (stereo not drawn): the TGI in [2], in experiment [3], in experiment [9], in [4], in experiment [5] and in experiment [6] was above 100 µM in each case. Moreover, the TGI in [7] is above 100 µM.
